Experiments:
NFS1 [1] = molecular target: T1, NFS1 (Homo sapiens, UniProt Q9Y697); assay: reconstituted [2Fe-2S] cluster synthesis by circular dichroism; UV/Vis of Cys-ketimine formation; type: biochemical
Target sequence in this assay (Q9Y697 56-457, other chains not shown): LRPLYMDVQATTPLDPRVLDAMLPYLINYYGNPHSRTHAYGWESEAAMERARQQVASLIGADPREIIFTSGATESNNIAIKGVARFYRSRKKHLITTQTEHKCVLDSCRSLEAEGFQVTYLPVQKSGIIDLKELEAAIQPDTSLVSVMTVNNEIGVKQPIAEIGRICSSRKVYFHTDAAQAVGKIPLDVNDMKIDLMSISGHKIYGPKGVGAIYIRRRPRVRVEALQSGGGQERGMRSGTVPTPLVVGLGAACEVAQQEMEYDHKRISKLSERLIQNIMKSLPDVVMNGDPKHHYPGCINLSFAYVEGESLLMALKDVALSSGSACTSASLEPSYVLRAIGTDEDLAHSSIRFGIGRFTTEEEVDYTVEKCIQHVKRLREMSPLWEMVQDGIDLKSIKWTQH
Target sequence in this assay (Q9HD34 whole entry partner, other chains not shown): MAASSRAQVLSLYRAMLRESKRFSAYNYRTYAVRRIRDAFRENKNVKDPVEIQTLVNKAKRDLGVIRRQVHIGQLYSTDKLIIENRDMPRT
Target sequence in this assay (Q16595 81-210 partner, other chains not shown): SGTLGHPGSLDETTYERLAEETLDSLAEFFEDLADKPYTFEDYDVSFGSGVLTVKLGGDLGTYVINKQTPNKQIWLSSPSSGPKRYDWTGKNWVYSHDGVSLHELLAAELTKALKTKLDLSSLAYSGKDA
Target sequence in this assay (Q9H1K1 35-167 partner, other chains not shown): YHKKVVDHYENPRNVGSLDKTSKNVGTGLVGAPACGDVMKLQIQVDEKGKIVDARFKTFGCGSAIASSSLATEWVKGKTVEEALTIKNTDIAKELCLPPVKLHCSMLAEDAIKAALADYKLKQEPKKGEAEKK

NFS1 [2] = molecular target: NFS1 (Homo sapiens, UniProt Q9Y697, C381S); assay: microscale thermophoresis; type: binding
NFS1 [3] = molecular target: T1, NFS1; assay: X-ray crystal structure after incubation with […] ligand; type: binding
Target sequence in this assay (Q9Y697 56-457): as the sequence (Q9Y697 56-457, other chains not shown) above
Target sequence in this assay (Q9HD34 whole entry partner): as the sequence (Q9HD34 whole entry partner, other chains not shown) above
Target sequence in this assay (P0A6A8 2-78 partner): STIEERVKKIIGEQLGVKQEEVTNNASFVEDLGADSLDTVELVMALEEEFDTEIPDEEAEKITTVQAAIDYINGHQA
Target sequence in this assay (Q9H1K1 35-167 partner): as the sequence (Q9H1K1 35-167 partner, other chains not shown) above

Sequence of NFS1 (Homo sapiens, UniProt Q9Y697, C381S) (Q9HD34 whole entry, other chains not shown): as the sequence (Q9HD34 whole entry partner, other chains not shown) above
Sequence of NFS1 (Homo sapiens, UniProt Q9Y697, C381S) (Q9Y697 56-457 C381S, other chains not shown): as the sequence (Q9Y697 56-457, other chains not shown) above, with C326S counted along it

Structure (SMILES) | reconstituted [2Fe-2S] cluster synthesis by circular dichroism; UV/Vis of Cys-ke (NFS1 [1]) | Kd (NFS1 [2]) | X-ray crystal structure after incubation with 1 mM ligand (NFS1 [3])
N[C@H](CS)C(=O)O [D-Cys, D-cysteine] | when D-Cys is present in excess, the NFS1 enzymatic activity is inhibited | 25.6 µM | 
N[C@@H](CS)C(=O)O [L-Cys, L-cysteine] |  | 2.15 µM | 
C#CC[C@H](N)C(=O)O [PG, L-propargylglycine] |  |  | in the NFS1 active site, we observed an external L-propargylglycine-ketimine

Source: article PMC12373508, “D-cysteine impairs tumour growth by inhibiting cysteine desulfurase NFS1” (Nature Metabolism, 2025)
